Values of other authors as cited in PMC7395068, “The evolution of strategies to minimise the risk of human drug-induced liver injury (DILI) in drug discovery and development” (Archives of Toxicology, 2020).
Read-outs that look alike come from different tables or passages of the source.

Details: cited from earlier work
[1] = binary in vivo DILI call given beside the severity category, ref Chen 2016
[2] = human DILI concern category (LTKB DILIrank), ref Chen 2016
[3] = LTKB DILIrank category, ref Chen 2016
[4] = binary human DILI assignment, ref Chen 2016
[5] = binary DILI call, ref Chen 2016
[6] = binary in vivo human DILI call, ref Chen 2016
[7] = human DILI, LTKB DILIrank category, ref Chen 2016

Row | Compound | DILI severity category [3] | DILI +VE (5-8), DILI -VE (-4) (in vivo) | DILI severity category (in vivo) | other results
1 | COc1cc(NCc2ccc3nc(N)nc(N)c3c2C)cc(OC)c1OC [trimetrexate] |  |  |  | DILI +VE (5-8), DILI -VE (-4) [1]: -VE; DILI severity category [2]: Ambiguous DILI-concern
2 | CC(CN(C)C)CN1c2ccccc2CCc2ccccc21 (stereo not drawn) [trimipramine] |  |  |  | DILI +VE (5-8), DILI -VE (-4) [1]: -VE; DILI severity category [2]: Ambiguous DILI-concern
3 | NC(CO)(CO)CO [tromethamine] | Ambiguous DILI-concern |  |  | DILI +VE (5-8), DILI -VE (-4) [4]: -VE
4 | O=C(O[C@H]1C[C@H]2CC[C@@H](C1)[N+]21CCCC1)C(O)(c1ccccc1)c1ccccc1 [trospium] | vNo-DILI-Concern |  |  | DILI +VE (5-8), DILI -VE (-4) [4]: -VE
5 | NCCc1ccc(O)cc1 [tyramine] | vNo-DILI-Concern |  |  | DILI +VE (5-8), DILI -VE (-4) [4]: -VE
6 | CC(C)[C@H](N)C(=O)OCCOCn1cnc2c(=O)[nH]c(N)nc21 [valaciclovir] | vLess-DILI-Concern |  |  | DILI +VE (5-8), DILI -VE (-4) [4]: +VE
7 | Cc1onc(-c2ccccc2)c1-c1ccc(S(N)(=O)=O)cc1 [valdecoxib] | vLess-DILI-Concern |  |  | DILI +VE (5-8), DILI -VE (-4) [4]: +VE
8 | CC(C)[C@H](N)C(=O)OCC(CO)OCn1cnc2c(=O)nc(N)[nH]c21 (stereo partly drawn) [valganciclovir] | Ambiguous DILI-concern |  |  | DILI +VE (5-8), DILI -VE (-4) [4]: -VE
9 | c1cnc2cc3c(cc2n1)[C@@H]1CNC[C@H]3C1 [varenicline] | vLess-DILI-Concern |  |  | DILI +VE (5-8), DILI -VE (-4) [4]: +VE
10 | CC(=O)O[C@H]1C[C@@H]2CC[C@@H]3[C@H](CC[C@@]4(C)[C@H]3C[C@H]([N+]3(C)CCCCC3)[C@@H]4OC(C)=O)[C@@]2(C)C[C@@H]1N1CCCCC1 [vecuronium] | vNo-DILI-Concern |  |  | DILI +VE (5-8), DILI -VE (-4) [4]: -VE
11 | C=CC(N)CCC(=O)O (stereo not drawn) [vigabatrin] | Ambiguous DILI-concern |  |  | DILI +VE (5-8), DILI -VE (-4) [4]: -VE
12 | CC[C@]1(O)C[C@H]2CN(CCc3c([nH]c4ccccc34)[C@@](C(=O)OC)(c3cc4c(cc3OC)N(C=O)[C@H]3[C@@](O)(C(=O)OC)[C@H](OC(C)=O)[C@]5(CC)C=CCN6CC[C@]43[C@@H]65)C2)C1 [vincristine] | vLess-DILI-Concern |  |  | DILI +VE (5-8), DILI -VE (-4) [4]: +VE
13 | CCC1=C[C@@H]2CN(C1)Cc1c([nH]c3ccccc13)[C@@](C(=O)OC)(c1cc3c(cc1OC)N(C)[C@H]1[C@@](O)(C(=O)OC)[C@H](OC(C)=O)[C@]4(CC)C=CCN5CC[C@]31[C@@H]54)C2 [vinorelbine] | Ambiguous DILI-concern |  |  | DILI +VE (5-8), DILI -VE (-4) [4]: -VE
14 | CC1=C(/C=C/C(C)=C/C=C/C(C)=C/CO)C(C)(C)CCC1 [vitamin a] | vLess-DILI-Concern |  |  | DILI +VE (5-8), DILI -VE (-4) [4]: +VE
15 | O=C1O[C@H]([C@@H](O)CO)C(O)=C1O [vitamin c] | vNo-DILI-Concern |  |  | DILI +VE (5-8), DILI -VE (-4) [4]: -VE
16 | O=C(CCCCCCC(=O)Nc1ccccc1)NO [vorinostat] | vNo-DILI-Concern |  |  | DILI +VE (5-8), DILI -VE (-4) [4]: -VE
17 | CCOC(Nc1ccc(C(=O)O)cc1)C(=O)c1ccc(-c2ccccc2)cc1 (stereo not drawn) [xenazoic acid] | vMost-DILI-Concern |  |  | DILI +VE (5-8), DILI -VE (-4) [4]: +VE
18 | O=C1Cc2cc(CCN3CCN(c4nsc5ccccc45)CC3)c(Cl)cc2N1 [ziprasidone] | vLess-DILI-Concern |  |  | DILI +VE (5-8), DILI -VE (-4) [4]: +VE
19 | O=P(O)(O)C(O)(Cn1ccnc1)P(=O)(O)O [zoledronate] | vLess-DILI-Concern |  |  | DILI +VE (5-8), DILI -VE (-4) [4]: +VE
20 | CN(C)CCc1c[nH]c2ccc(C[C@H]3COC(=O)N3)cc12 [zolmitriptan] | Ambiguous DILI-concern |  |  | DILI +VE (5-8), DILI -VE (-4) [4]: -VE
21 | Argipressin | vNo-DILI-Concern |  |  | DILI +VE (5-8), DILI -VE (-4) [5]: -VE

Row | Compound | DILI severity category [3] | DILI +VE (5-8), DILI -VE (-4) (in vivo) | DILI severity category (in vivo) | other results
22 | Sodium polystyrene sulfonate |  | -VE | vNo-DILI-Concern | 
23 | abatacept |  | +VE | vLess-DILI-Concern | 
24 | abciximab |  | -VE | vNo-DILI-Concern | 
25 | adalimumab |  | +VE | vLess-DILI-Concern | 
26 | agalsidase beta |  | -VE | vNo-DILI-Concern | 
27 | aldesleukin |  | -VE | Ambiguous DILI-concern | 
28 | alemtuzumab |  | -VE | vNo-DILI-Concern | 
29 | alglucosidase alfa |  | -VE | vNo-DILI-Concern | 
30 | alteplase |  | -VE | vNo-DILI-Concern | 
31 | anakinra |  | +VE | vLess-DILI-Concern | 
32 | aprotinin | Ambiguous DILI-concern |  |  | DILI +VE (5-8), DILI -VE (-4) [5]: -VE
33 | asparaginase |  | +VE | vMost-DILI-Concern | 
34 | basiliximab |  | -VE | vNo-DILI-Concern | 
35 | bevacizumab |  | -VE | vNo-DILI-Concern | 
36 | bivalirudin | vNo-DILI-Concern |  |  | DILI +VE (5-8), DILI -VE (-4) [5]: -VE
37 | bleomycin | Ambiguous DILI-concern |  |  | DILI +VE (5-8), DILI -VE (-4) [5]: -VE
38 | botulinum toxin type a |  | -VE | vNo-DILI-Concern | 
39 | canakinumab |  | +VE | vLess-DILI-Concern | 
40 | certolizumab pegol |  | -VE | Ambiguous DILI-concern | 
41 | cholestyramine |  | -VE | Ambiguous DILI-concern | 
42 | colestipol |  | -VE | Ambiguous DILI-concern | 

Row | Compound | DILI severity category [3] | DILI +VE (5-8), DILI -VE (-4) (in vivo) | DILI severity category (in vivo) | other results
43 | colistimethate |  | -VE | vNo-DILI-Concern | 
44 | corticotropin (SYSMEHFRWGKPVGKKRRPVKVYPNGAEDESAEAFPLEF; Corticotropin; UniProt P01189 138-176, looked up) |  |  |  | DILI +VE (5-8), DILI -VE (-4) [6]: -VE; DILI severity category [7]: vNo-DILI-Concern
45 | dalteparin sodium |  | +VE | vLess-DILI-Concern | 
46 | denileukin diftitox |  |  |  | DILI +VE (5-8), DILI -VE (-4) [6]: -VE; DILI severity category [7]: Ambiguous DILI-concern
47 | ecallantide |  | -VE | vNo-DILI-Concern | 
48 | enoxaparin |  | +VE | vLess-DILI-Concern | 
49 | epoetin alfa |  | -VE | vNo-DILI-Concern | 
50 | erythropoietin |  | -VE | vNo-DILI-Concern | 
51 | etanercept |  | +VE | vLess-DILI-Concern | 
52 | exenatide |  |  |  | DILI +VE (5-8), DILI -VE (-4) [6]: -VE; DILI severity category [7]: vNo-DILI-Concern
53 | ferumoxides |  | -VE | vNo-DILI-Concern | 
54 | ferumoxytol |  | -VE | vNo-DILI-Concern | 
55 | filgrastim |  | -VE | Ambiguous DILI-concern | 
56 | galsulfase |  | -VE | vNo-DILI-Concern | 
57 | gemtuzumab ozogamicin |  |  |  | DILI +VE (5-8), DILI -VE (-4) [6]: +VE; DILI severity category [7]: vMost-DILI-Concern
58 | glatiramer acetate |  |  |  | DILI +VE (5-8), DILI -VE (-4) [6]: -VE; DILI severity category [7]: Ambiguous DILI-concern
59 | golimumab |  | -VE | Ambiguous DILI-concern | 
60 | heparin sodium |  | +VE | vLess-DILI-Concern | 
61 | hyaluronidase |  | -VE | vNo-DILI-Concern | 
62 | infliximab |  | +VE | vMost-DILI-Concern | 
63 | interferon alfacon-1 |  | +VE | vMost-DILI-Concern | 
